ChEMBL document CHEMBL1201862, “PubChem BioAssay data set” (2004)
Activity calls are given as the source filed them.

Legend:
[1] = target: SWI/SNF-related matrix-associated actin-dependent regulator of chromatin subfamily A member 2 (Homo sapiens, UniProt P51531); assay: Luminescence-based cell-based high throughput dose response assay to identify activators of the function of SWI/SNF related, matrix associated, actin dependent regulator of chromatin, subfamily a, member 2 (SMARCA2, BRM).; format: functional
Sequence of SWI/SNF-related matrix-associated actin-dependent regulator of chromatin subfamily A member 2 (P51531 whole entry): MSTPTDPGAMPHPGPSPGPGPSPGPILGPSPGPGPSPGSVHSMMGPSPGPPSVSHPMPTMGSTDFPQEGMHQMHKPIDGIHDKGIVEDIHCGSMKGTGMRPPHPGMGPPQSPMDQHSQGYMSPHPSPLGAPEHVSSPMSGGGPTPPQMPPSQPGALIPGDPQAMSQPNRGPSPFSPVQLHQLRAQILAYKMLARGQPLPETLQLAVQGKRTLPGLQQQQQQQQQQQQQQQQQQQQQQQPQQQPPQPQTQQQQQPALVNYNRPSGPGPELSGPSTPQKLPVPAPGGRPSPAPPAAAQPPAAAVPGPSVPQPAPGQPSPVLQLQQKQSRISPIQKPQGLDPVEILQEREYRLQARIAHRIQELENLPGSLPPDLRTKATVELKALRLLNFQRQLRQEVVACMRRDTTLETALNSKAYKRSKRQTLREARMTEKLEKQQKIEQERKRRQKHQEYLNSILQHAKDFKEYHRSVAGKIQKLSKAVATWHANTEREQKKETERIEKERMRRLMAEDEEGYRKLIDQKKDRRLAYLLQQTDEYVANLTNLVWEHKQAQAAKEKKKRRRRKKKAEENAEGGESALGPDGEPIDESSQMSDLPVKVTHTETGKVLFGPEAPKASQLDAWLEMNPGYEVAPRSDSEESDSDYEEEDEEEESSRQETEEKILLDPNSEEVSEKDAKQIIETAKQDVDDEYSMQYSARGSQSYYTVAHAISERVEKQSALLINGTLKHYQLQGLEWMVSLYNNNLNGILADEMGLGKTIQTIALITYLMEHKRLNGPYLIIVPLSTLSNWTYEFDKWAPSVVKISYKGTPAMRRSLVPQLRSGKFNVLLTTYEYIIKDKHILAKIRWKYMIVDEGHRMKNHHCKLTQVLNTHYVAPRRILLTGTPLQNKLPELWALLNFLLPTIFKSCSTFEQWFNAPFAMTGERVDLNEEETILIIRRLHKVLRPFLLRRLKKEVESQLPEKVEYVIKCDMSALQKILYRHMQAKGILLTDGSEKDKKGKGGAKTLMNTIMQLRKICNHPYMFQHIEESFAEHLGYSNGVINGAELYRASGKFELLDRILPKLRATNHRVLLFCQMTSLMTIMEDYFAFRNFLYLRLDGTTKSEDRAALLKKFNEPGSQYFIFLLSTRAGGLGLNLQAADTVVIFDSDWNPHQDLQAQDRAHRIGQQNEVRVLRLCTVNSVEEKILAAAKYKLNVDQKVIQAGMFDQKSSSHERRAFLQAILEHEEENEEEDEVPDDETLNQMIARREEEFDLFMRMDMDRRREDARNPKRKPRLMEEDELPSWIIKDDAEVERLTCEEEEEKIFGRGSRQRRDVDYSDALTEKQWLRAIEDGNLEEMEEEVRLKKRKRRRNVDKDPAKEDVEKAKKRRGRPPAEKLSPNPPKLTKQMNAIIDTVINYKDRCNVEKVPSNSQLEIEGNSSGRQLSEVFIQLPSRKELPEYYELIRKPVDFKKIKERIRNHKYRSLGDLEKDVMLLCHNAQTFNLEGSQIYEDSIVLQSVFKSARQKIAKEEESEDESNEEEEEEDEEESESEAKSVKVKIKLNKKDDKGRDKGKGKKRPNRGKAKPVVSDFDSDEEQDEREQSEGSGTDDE

[2] = Counterscreen for activators of the function of SWI/SNF related, matrix associated, actin dependent regulator of chromatin, subfamily a, member 2 (SMARCA2, BRM): Luminescence-based cell-based high throughput dose response assay to identify non-selective compounds using the VP16 reporter assay.; format: functional
[3] = target: T1, Sentrin-specific protease 7 (Homo sapiens, UniProt Q9BQF6); format: functional;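 note: Luminescence-based dose-response confirmation of ultra-high-throughput screening hits, measuring inhibition of SENP7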
T1 sequence (Q9BQF6 whole entry): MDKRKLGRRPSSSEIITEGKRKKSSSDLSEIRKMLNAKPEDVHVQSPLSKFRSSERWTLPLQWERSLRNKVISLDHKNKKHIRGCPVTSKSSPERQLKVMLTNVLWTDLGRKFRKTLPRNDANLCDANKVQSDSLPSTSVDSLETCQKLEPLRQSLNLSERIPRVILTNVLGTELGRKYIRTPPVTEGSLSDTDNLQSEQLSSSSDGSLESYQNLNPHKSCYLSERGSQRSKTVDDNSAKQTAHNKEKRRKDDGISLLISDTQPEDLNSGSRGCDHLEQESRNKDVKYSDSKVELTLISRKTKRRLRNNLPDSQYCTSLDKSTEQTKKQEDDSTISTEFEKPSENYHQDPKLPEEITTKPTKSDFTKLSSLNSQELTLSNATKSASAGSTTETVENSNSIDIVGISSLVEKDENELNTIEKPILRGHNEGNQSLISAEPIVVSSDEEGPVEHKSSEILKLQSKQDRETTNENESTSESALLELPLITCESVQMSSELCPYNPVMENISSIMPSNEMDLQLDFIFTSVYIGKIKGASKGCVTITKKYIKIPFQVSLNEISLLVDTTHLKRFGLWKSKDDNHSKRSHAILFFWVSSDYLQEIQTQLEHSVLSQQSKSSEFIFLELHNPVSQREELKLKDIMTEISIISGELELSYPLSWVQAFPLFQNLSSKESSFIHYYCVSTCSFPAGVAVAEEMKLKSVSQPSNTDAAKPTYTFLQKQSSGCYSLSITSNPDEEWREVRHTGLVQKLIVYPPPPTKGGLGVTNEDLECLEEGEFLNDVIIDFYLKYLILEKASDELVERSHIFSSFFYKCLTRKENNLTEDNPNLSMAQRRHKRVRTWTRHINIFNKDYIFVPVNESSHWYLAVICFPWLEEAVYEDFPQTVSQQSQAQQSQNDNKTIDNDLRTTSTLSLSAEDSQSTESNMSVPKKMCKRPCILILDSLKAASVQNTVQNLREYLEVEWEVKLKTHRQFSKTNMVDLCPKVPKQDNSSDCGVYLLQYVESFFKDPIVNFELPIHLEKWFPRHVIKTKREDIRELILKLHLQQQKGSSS

Caspase-3 = target: T2, Caspase-3 (Homo sapiens, UniProt P42574); format: functional;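 note: Dose-response selectivity test against caspase-3 for candidate inhibitors of sentrin-specific proteases (SENPs)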
T2 sequence (P42574 whole entry): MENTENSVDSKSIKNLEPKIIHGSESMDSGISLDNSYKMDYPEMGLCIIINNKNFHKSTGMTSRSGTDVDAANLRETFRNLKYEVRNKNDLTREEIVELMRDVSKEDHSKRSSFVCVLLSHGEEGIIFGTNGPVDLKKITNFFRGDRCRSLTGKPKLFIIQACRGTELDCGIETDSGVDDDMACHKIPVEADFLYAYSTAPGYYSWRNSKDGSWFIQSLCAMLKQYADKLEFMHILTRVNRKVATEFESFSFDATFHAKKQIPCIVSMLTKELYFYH

[4] = target: T3, Sentrin-specific protease 8 (Homo sapiens, UniProt Q96LD8); format: functional;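 note: luminescence read-out of SENP8 inhibition, dose-response confirmation following an ultra-high-throughput screen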
T3 sequence (Q96LD8 whole entry): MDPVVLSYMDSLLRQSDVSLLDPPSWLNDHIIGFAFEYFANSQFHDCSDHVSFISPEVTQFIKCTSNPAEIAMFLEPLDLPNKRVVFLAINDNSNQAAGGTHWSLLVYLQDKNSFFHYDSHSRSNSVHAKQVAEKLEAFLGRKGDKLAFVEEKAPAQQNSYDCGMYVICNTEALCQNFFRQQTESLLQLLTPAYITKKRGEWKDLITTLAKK

[5] = target: T4, Sentrin-specific protease 6 (Homo sapiens, UniProt Q9GZR1); format: functional;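 note: Luminescence-based dose-response confirmatory assay of SENP6 inhibition, following up an ultra-high-throughput screen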
T4 sequence (Q9GZR1 whole entry): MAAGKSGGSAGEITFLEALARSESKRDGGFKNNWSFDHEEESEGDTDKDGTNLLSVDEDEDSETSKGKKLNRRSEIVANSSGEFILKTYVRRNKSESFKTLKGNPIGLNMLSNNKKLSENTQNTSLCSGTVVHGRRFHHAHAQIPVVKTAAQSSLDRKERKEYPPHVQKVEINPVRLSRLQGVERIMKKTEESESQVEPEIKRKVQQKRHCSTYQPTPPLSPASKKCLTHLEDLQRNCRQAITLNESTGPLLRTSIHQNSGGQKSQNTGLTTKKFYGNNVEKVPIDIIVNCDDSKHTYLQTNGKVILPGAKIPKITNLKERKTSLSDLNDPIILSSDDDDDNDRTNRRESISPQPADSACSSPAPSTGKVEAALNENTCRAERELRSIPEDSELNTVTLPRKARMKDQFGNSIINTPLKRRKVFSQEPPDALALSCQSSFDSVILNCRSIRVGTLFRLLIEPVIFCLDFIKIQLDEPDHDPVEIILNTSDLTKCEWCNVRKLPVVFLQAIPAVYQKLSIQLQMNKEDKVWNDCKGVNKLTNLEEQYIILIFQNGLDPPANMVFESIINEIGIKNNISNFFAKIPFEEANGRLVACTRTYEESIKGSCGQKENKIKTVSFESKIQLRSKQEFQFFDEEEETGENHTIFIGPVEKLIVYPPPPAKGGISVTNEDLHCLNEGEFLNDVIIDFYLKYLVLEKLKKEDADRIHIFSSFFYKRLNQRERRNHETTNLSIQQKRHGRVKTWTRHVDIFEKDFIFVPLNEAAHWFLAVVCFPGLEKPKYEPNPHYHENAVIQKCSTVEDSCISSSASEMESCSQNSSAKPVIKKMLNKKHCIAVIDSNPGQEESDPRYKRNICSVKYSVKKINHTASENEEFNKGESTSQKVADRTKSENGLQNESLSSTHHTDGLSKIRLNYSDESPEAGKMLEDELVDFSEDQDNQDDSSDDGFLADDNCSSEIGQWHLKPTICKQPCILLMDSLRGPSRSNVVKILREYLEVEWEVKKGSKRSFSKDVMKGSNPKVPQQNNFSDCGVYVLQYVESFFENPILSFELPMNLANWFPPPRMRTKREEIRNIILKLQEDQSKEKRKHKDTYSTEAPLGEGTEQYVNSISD

[6] = reduced cellular PGC1a acetyl-lysine signal – cell-based, cherry-picked samples, dose response (AID 720514); format: functional;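 note: potency may reflect raised or lowered acetylation signal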
[7] = A cytotoxicity screen of small molecule inhibitors of the PhoP region in Salmonella typhi identified in the primary screen. [Related pubchem assays: 1850, 1864, 1985 ]; format: functional
Paired box protein Pax-8 = Paired box protein Pax-8 (Homo sapiens, UniProt Q06710); assay: PAX8 transcriptional activity inhibition in RMG-I – RMG-I cells, luciferase, cherry-pick, dose response (AID 687027); format: functional, cell-based;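 note: luciferase reporter driven by Pax8 target thyroperoxidase promoter measured by SteadyGlo luminescence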
Sequence of Paired box protein Pax-8 (Q06710 whole entry): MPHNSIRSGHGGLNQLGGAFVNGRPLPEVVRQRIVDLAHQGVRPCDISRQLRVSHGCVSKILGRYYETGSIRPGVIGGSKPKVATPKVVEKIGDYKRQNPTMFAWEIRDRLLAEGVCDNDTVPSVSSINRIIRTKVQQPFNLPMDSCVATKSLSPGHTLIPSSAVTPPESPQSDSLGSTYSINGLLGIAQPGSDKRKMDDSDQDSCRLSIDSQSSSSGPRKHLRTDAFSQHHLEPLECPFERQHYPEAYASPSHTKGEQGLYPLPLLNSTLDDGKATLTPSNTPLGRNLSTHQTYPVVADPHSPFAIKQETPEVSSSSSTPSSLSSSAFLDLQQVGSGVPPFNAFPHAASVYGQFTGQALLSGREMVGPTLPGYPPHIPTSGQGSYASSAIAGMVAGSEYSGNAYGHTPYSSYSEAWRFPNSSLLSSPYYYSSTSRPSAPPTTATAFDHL

INS1 = assay: INS-1E survival protection against cytokine death – cell-based, luminescence, retest, dose response (AID 449756); format: functional; settings: Rattus norvegicus;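 note: cell death triggered by IL-1 beta plus TNF-alpha plus IFN-gamma mixture; protective hits raise ATP signal compared with cytokine alone wells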
[8] = Luminescence Cell-Based Dose Retest to Confirm Inhibitors of Cancer Stem Cells. [Related pubchem assays (depositor defined):AID2717, AID2721]; format: functional; settings: Homo sapiens
[9] = intracellular Trypanosoma cruzi inhibitors in host cells – cell-based, plate reader, cherry-pick samples, set 3, dose response (AID 651818); format: functional;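 note: compounds incubated with infected cells for about four days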
[10] = blockers of HIV-1 ZM109 envelope-driven cell-cell fusion – HeLa effector, CEM target cells, luciferase, cherry-pick, dose response (AID 652058); format: functional, cell-based;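 note: luciferase signal from HIV-1 Env mediated cell-cell fusion of effector and target cells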
[11] = HIV-1 AD8 envelope cell-cell fusion blockers – cherry-pick, dose response (AID 652062); format: functional, cell-based;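 note: luciferase signal from cell-cell fusion driven by HIV-1 clade B AD8 Env; potency is for inhibitors of fusion seen as a drop in luminescence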
[12] = blockers of HIV-1 envelope-mediated cell-cell fusion – cherry-pick, dose response (AID 652057); format: functional, cell-based
[13] = Dd2 malaria parasite growth inhibition potency – SYBR Green, dry powder samples, dose response (AID 1159566); format: functional, cell-based;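 note: potency for growth inhibition with lower SYBR green DNA signal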
[14] = growth inhibition of PfATP4-mutant resistant parasites – NITD609-resistant line, SYBR Green, dry powder, dose response (AID 1159571); format: functional, cell-based;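 note: parasites synchronized at ring stage by sorbitol before testing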
[15] = toxicity to human HepG2 hepatoma cells – cell-based, plate reader, dry powder samples, cytotoxicity control, dose response (AID 1159569); format: functional;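 note: inhibitor potency with signal falling toward the positive control level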
[16] = growth inhibition of yeast DHODH-expressing 3D7 parasites – SYBR Green, dry powder samples, dose response (AID 1159570); format: functional, cell-based;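 note: parasite growth measured after 72 hours of compound exposure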
[17] = P. falciparum Dd2 growth inhibitors, dose response, SYBR Green, cherry-picked samples (AID 1159567); format: functional, cell-based

COCn1c(COc2ccccc2)nc2ccccc21
EC50 [1]: > 91.2 µM (inactive) | EC50 [2]: > 91.2 µM (inactive)

COc1ccccc1CNC(=O)COc1ccccc1C(=O)c1cnn(-c2ccccc2)c1
IC50 [3]: 11.4 µM (active) | IC50 (Caspase-3): 21.9 µM (active) | IC50 [4]: 24.3 µM (active) | IC50 [5]: 26.1 µM (active)

CC1CCC[C@H](O)CCCCCc2cc(O)cc(O)c2C(=O)O1 (some centres not stated)
AC50 [6]: 35.9 µM (active) | EC50 [7]: > 50 µM (active)

C=C1C(=O)OC2C1CCC(C)C1C=CC(=O)C12C (configuration not stated)
EC50 [1]: > 91.2 µM (inactive) | EC50 [2]: > 91.2 µM (inactive)

COc1cc(Cl)c(NC2=CC(=O)C(=O)c3ccccc32)c(OC)c1
IC50 [3]: 15.6 µM (active) | IC50 (Caspase-3): 28.8 µM (active) | AC50 (Paired box protein Pax-8): 4.49 µM (active) | IC50 [4]: 14.5 µM (active) | AC50 (INS1): 3.33 µM (active) | IC50 [5]: 9.11 µM (active) | AC50 [8]: 1.15 µM (active)

C[C@@H]1CN([C@H](C)CO)C(=O)c2cccc(NC(=O)Nc3cccc4ccccc34)c2O[C@@H]1CN(C)Cc1ccc(C(F)(F)F)cc1
AC50 [9]: 6.48 µM (active)

C[C@H]1CN([C@@H](C)CO)C(=O)Cc2cc(NC(=O)Nc3ccc(C(F)(F)F)cc3)ccc2O[C@@H]1CN(C)CC1CCCCC1
AC50 [9]: 3.54 µM (active)

COc1ccc(S(=O)(=O)Nc2ccc3c(c2)C(=O)N([C@H](C)CO)C[C@H](C)[C@@H](CN(C)Cc2ccc(Cl)c(Cl)c2)OCCCC[C@@H](C)O3)cc1
AC50 (Paired box protein Pax-8): 10.2 µM (active) | AC50 [9]: 2.64 µM (active)

C[C@@H]1CN([C@H](C)CO)C(=O)Cc2cc(NC(=O)Nc3ccc4c(c3)OCO4)ccc2O[C@@H]1CN(C)Cc1ccc(C(=O)Nc2ccccc2N)cc1
AC50 [9]: 2.04 µM (active)

C[C@H](CO)N1C[C@H](C)[C@@H](CN(C)Cc2ccc(Cl)c(Cl)c2)Oc2c(NC(=O)Nc3cccc4ccccc34)cccc2C1=O
AC50 [9]: 9.77 µM (active)

COc1ccc(CNC(=O)N(C)C[C@@H]2OCc3ccccc3-c3c(n(C)c4ccccc34)C(=O)N([C@H](C)CO)C[C@@H]2C)cc1
AC50 [10]: < 235 nM (active) | AC50 [11]: < 235 nM (active) | AC50 [12]: < 235 nM (active)

COc1ccc(-c2cnc3c(c2)C(=O)N([C@H](C)CO)C[C@@H](C)[C@@H](CN(C)C(=O)Nc2c(C)noc2C)O3)cc1
AC50 [6]: 12.2 µM (active)

CC(C)(C)[S@@+]([O-])N1Cc2cc(C(=O)NCCN3CCCCC3)nc(-c3cccc(-c4ccc(C#N)cc4)c3)c2[C@H]1CCO
AC50 [13]: 2.37 µM (active) | AC50 [14]: 2.9 µM (active) | AC50 [15]: 63.2 µM (active) | AC50 [16]: 3.54 µM (active) | AC50 [17]: 2.79 µM (active)

C[C@@H]1CN([C@@H](C)CO)S(=O)(=O)c2ccc(/C=C/c3ccccc3)cc2O[C@H]1CN(C)Cc1cccnc1
AC50 [13]: 1.63 µM (active) | AC50 [14]: 2.15 µM (active) | AC50 [15]: 56.2 µM (active) | AC50 [16]: 1.6 µM (active) | AC50 [17]: 1.93 µM (active)

COc1ccc(S(=O)(=O)N(C)C[C@@H]2Oc3cc(-c4ccccc4OC)ccc3S(=O)(=O)N([C@H](C)CO)C[C@H]2C)cc1
AC50 [13]: 0.653 µM (active) | AC50 [14]: 0.766 µM (active) | AC50 [15]: > 100 µM (inactive) | AC50 [16]: 0.894 µM (active) | AC50 [17]: 1.12 µM (active)

OC[C@@H]1CC[C@@H]2O[C@H](CCc3ccc(-c4ccccc4)cc3)[C@H](n3cc(-c4ccccc4)nn3)C[C@@H]2O1
AC50 [13]: 0.555 µM (active) | AC50 [14]: 0.885 µM (active) | AC50 [15]: > 100 µM (inactive) | AC50 [16]: 1.38 µM (active) | AC50 [17]: 1.34 µM (active)

C/C=C/c1ccc2c(c1)[C@H]1[C@H](CCN1C(=O)c1cccc(F)c1)[C@H](CO)N2
AC50 [13]: 1.05 µM (active) | AC50 [14]: 1.64 µM (active) | AC50 [15]: > 100 µM (inactive) | AC50 [16]: 1.46 µM (active) | AC50 [17]: 1.54 µM (active)
